Data as given in patent publication US10844013B2, “Phenyl amino piperidine mTORC inhibitors and uses thereof” (Navitor Pharmaceuticals, Inc., priority 2016, dated 2020).
Read-outs that look alike come from different tables or passages of the source.

Tests used:
[1] = tested on: pAKT (p-Akt 1/2/3 (Ser473)) in MCF-7 cells; test: AlphaLISA Ultra pAKT assay; type: cell-based
Experimental: Example 156: AlphaLISA Ultra pAKT Assay
(§1) Assay Protocol: • 1. MCF-7 cells in Corning 3701 plate and incubate for 20-24 hour. 16,000-20,000 cells will be seeded in 36 μL medium per well. • 2. Change the culture medium with fresh medium and incubate for another 2 hours. • 3. Add 12 μL (4×) compounds into the cell plate by HAMILTON. Final DMSO concentration is 0.5%. Incubate for 2 hours. • 4. Aspirate 38 j L by HAMILTON, 10 μL rest per well. • 5. Add 10 μL 2× lysis buffer using HAMILTON; total volume in wells is 20 μL. Allow cells to shake for 30 min. Cover plate by plastic foil and store plate at −80° C. up to analysis. • 6. Thaw cell lysate at RT and transfer 10 ul lysate to assay plate (Optiplate-384). • 7. Add 5 ul acceptor beads into assay plate and incubation for 2 hours • 8. Add 5 ul donor beads and incubation for 2 hours • 9. Count the plate by EnSpire Multimode Plate Reader

[2] = tested on: pS6K1 (p-p70 S6 Kinase (Thr389)) in MCF-7 cells; test: AlphaLISA Ultra pS6K1 assay; type: cell-based; conditions: 2 hours compound incubation
Experimental: Example 155: AlphaLISA Ultra pS6K1 assay
as §1, with “1. Seed” for “1.”, “20˜24” for “20-24”, “12,000˜16,000” for “16,000-20,000”, “μL” for “j L”

[3] = Homo sapiens, MCF7, 2 hours compound incubation
[4] = 2 hours compound incubation, read-out: pAKT in MCF7: IC50

Row | SMILES | IC50 [1, 3] [µM] | IC50 ([2]; Homo sapiens, MCF7, 2 h) [µM] | IC50 [1, 4] [µM] | IC50 ([2]; read-out: pS6K1 in MCF7: IC50) [µM]
1 | Cc1cc(C)c(C(=O)N2CCN(c3ccccc3)[C@H](CO)C2)cc1NC1CCN(c2ccccc2C#N)CC1 (single isomer, unassigned) [I-40, 2-[4-({5-[3S or R-(hydroxymethyl)-4-phenylpiperazine-1-carbonyl]-2,4-dimethylphenyl}amino)piperidin-1-yl]benzonitrile] | > 10 | 0.01 to 1 | – | –
2 | Cc1cc(C)c(C(=O)N2CCN(c3ccccc3S(C)(=N)=O)CC2)cc1NC1CCN(c2ccccc2C#N)CC1 (single isomer, unassigned) [I-50, 2-(4-{[5-(4-{2-[(R or S)-imino(methyl)oxo-λ^6-sulfanyl]phenyl}piperazine-1-carbonyl)-2,4-dimethylphenyl]amino}piperidin-1-yl)benzonitrile] | – | – | > 10 | 1 to 3
3 | Cc1ccc(NC2CCN(c3ccccc3C#N)CC2)cc1C(=O)N1CCN(c2ccccc2)C(CO)C1 (single isomer, unassigned) [I-82, 2-[4-({3-[(3R or S)-3-(hydroxymethyl)-4-phenylpiperazine-1-carbonyl]-4-methylphenyl}amino)piperidin-1-yl]benzonitrile] | > 10 | – | – | 3 to 5
4 | Cc1ccc(NC2CCN(c3ccccc3C#N)CC2)cc1C(=O)N1CCN(c2ccccc2)C(CO)C1 (single isomer, unassigned) [I-83, 2-[4-({3-[(3S or R)-3-(hydroxymethyl)-4-phenylpiperazine-1-carbonyl]-4-methylphenyl}amino)piperidin-1-yl]benzonitrile] | – | – | > 10 | 0.01 to 1
5 | Cc1cc(C)c(C(=O)N2CCN(c3cccc(F)c3[S@](C)(=N)=O)CC2)cc1NC1CCN(c2ccccc2C#N)CC1 (single isomer, unassigned) [I-89] | > 10 | 0.01 to 1 | – | –
6 | CNC(=O)c1ccccc1N1CCN(C(=O)c2cc(NC3CCN(c4ccccc4C#N)CC3)c(C)cc2C)C[C@H]1CO (single isomer, unassigned) [I-134] | > 10 | 1 to 3 | – | –
7 | Cc1cc(C)c(C(=O)N2CCN(C(=O)OC(C)(C)C)[C@@H](CO)C2)cc1NC1CCN(c2ccccc2C#N)CC1 [I-7, (R)-tert-Butyl 4-(5-(1-(2-cyanophenyl)piperidin-4-ylamino)-2,4-dimethylbenzoyl)-2-(hydroxymethyl) piperazine-1-carboxylate] | > 10 | 1 to 3 | – | –
8 | Cc1cc(C)c(C(=O)N2CCN[C@H](CO)C2)cc1NC1CCN(c2ccccc2C#N)CC1 [I-8, (S)-2-(4-(5-(3-(hydroxymethyl)piperazine-1-carbonyl)-2,4-dimethylphenylamino)piperidin-1-yl)benzonitrile] | > 10 | > 10 | – | –
9 | Cc1ccc(C(=O)N2CCN(c3ccccc3S(N)(=O)=O)CC2)cc1NC1CCN(c2ccccc2C#N)CC1 [I-11] | > 10 | 3 to 5 | – | –
10 | Cc1nc(C)c(C(=O)N2CCN(c3ccccc3C#N)CC2)cc1NC1CCN(c2ccccc2C#N)CC1 [I-13, 2-(4-(5-(4-(2-Cyanophenyl)piperazine-1-carbonyl)-2,6-dimethylpyridin-3-ylamino)piperidin-1-yl)benzonitrile] | > 10 | 3 to 5 | – | –
11 | Cc1cc(C)c(C(=O)N2CCN(c3cccc(F)c3S(N)(=O)=O)CC2)nc1NC1CCN(c2ccccc2C#N)CC1 [I-16, 2-(4-(6-(1-(2-Cyanophenyl)piperidin-4-ylamino)-3,5-dimethylpicolinoyl)piperazin-1-yl)-6-fluorobenzenesulfonamide] | > 10 | 0.01 to 1 | – | –

Next, values leading:

Row | IC50 [1, 3] [µM] | IC50 ([2]; Homo sapiens, MCF7, 2 h) [µM] | IC50 [1, 4] [µM] | IC50 ([2]; read-out: pS6K1 in MCF7: IC50) [µM] | SMILES
12 | > 10 | 3 to 5 | – | – | Cc1cc(C)c(C(=O)N2CCN(c3ccccn3)[C@H](CO)C2)cc1NC1CCN(c2ccccc2C#N)CC1 (single isomer, unassigned) [I-38, 2-[4-({5-[(3S or 3R)-3-(hydroxymethyl)-4-(pyridin-2-yl)piperazine-1-carbonyl]-2,4-dimethylphenyl}amino)piperidin-1-yl]benzonitrile]
13 | > 10 | 1 to 3 | – | – | Cc1cc(C)c(C(=O)N2CCN(c3ccccc3)[C@@H](CO)C2)cc1NC1CCN(c2ccccc2C#N)CC1 (single isomer, unassigned) [I-41, 2-[4-({5-[3R or S-(hydroxymethyl)-4-phenylpiperazine-1-carbonyl]-2,4-dimethylphenyl}amino)piperidin-1-yl]benzonitrile]
14 | > 10 | 0.01 to 1 | – | – | Cc1cc(C)c(C(=O)N2CCN(c3ccccc3C#N)[C@@H](CO)C2)cc1NC1CCN(c2ccccc2C#N)CC1 (single isomer, unassigned) [I-77, 2-[4-({5-[(3R or 3S)-4-(2-Cyanophenyl)-3-(hydroxymethyl)piperazine-1-carbonyl]-2,4-dimethylphenyl}amino)piperidin-1-yl]benzonitrile]
15 | > 10 | – | – | 1 to 3 | Cc1ccc(C(=O)N2CCN(c3ccccc3)C(CO)C2)cc1NC1CCN(c2ccccc2C#N)CC1 (single isomer, unassigned) [I-84, 2-[4-({5-[(3R or S)-3-(hydroxymethyl)-4-phenylpiperazine-1-carbonyl]-2-methylphenyl}amino)piperidin-1-yl]benzonitrile]
16 | – | – | > 10 | 0.01 to 1 | Cc1ccc(C(=O)N2CCN(c3ccccc3)C(CO)C2)cc1NC1CCN(c2ccccc2C#N)CC1 (single isomer, unassigned) [I-85, 2-[4-({5-[(3S or R)-3-(hydroxymethyl)-4-phenylpiperazine-1-carbonyl]-2-methylphenyl}amino)piperidin-1-yl]benzonitrile]
17 | > 10 | 1 to 3 | – | – | Cc1cc(C)c(C(=O)N2CCN(c3ncccc3[S@](C)(=N)=O)CC2)cc1NC1CCN(c2ccccc2C#N)CC1 (single isomer, unassigned) [I-93]
18 | > 10 | 0.01 to 1 | – | – | Cc1cc(C)c(C(=O)N2CCN(c3ccccc3S(C)(=N)=O)CC2)nc1NC1CCN(c2ccccc2C#N)CC1 (single isomer, unassigned) [I-126, 2-(4-(3,5-Dimethyl-6-(4-(2-(S-methylsulfonimidoyl)phenyl)piperazine-1-carbonyl)pyridin-2-ylamino)piperidin-1-yl)benzonitrile]
19 | > 10 | 1 to 3 | – | – | CNC(=O)c1ccccc1N1CCN(C(=O)c2cc(NC3CCN(c4ccccc4C#N)CC3)c(C)cc2C)C[C@@H]1CO (single isomer, unassigned) [I-133]
20 | > 10 | 1 to 3 | – | – | COc1cccc(N2CCC(Nc3cc(C(=O)N4CCN(c5ccccc5S(N)(=O)=O)CC4)c(C)cc3C)CC2)c1 [I-5, 2-(4-(5-(1-(3-Methoxyphenyl)piperidin-4-ylamino)-2,4-dimethylbenzoyl)piperazin-1-yl) benzenesulfonamide]
21 | > 10 | 1 to 3 | – | – | Cc1cc(C)c(C(=O)N2CCN(C(=O)OC(C)(C)C)[C@H](CO)C2)cc1NC1CCN(c2ccccc2C#N)CC1 [I-9, (S)-tert-butyl 4-(5-(1-(2-cyanophenyl)piperidin-4-ylamino)-2,4-dimethylbenzoyl)-2-(hydroxymethyl)piperazine-1-carboxylate]
22 | > 10 | 1 to 3 | – | – | CCN(c1cc(C(=O)N2CCN(c3ccccc3S(N)(=O)=O)CC2)c(C)cc1C)C1CCN(c2ccccc2C#N)CC1C (centres unmarked) [I-10, 2-(4-(5-((1-(2-Cyanophenyl)-3-methylpiperidin-4-yl)(ethyl)amino)-2,4-dimethylbenzoyl)piperazin-1-yl)benzenesulfonamide]
